Measured values taken from patent publication US5589506A, “Stilbene derivative and stilbene analog derivative, and use thereof” (Morinaga Milk Industry Co., Ltd., priority 1993, dated 1996).
“Also recorded” adds a separate entry of the source. Where two headings read alike, the source gives them in different places.

Experiments:
[1] = system: 12-lipoxygenase; settings: background; cited from earlier work
[2] = biological target: T1, 12-lipoxygenase (Rattus norvegicus, UniProt F1LQ70); test: 12-lipoxygenase inhibition assay (rat platelet enzyme solution); assay type: biochemical, Sprague Dawley male rat
T1 construct: The pelleted platelets were rinsed twice with a washing buffer; from tissue; host or cells: platelets of Sprague Dawley male rat (sonicate, 100,000 x g supernatant)
T1 sequence (F1LQ70 1-663): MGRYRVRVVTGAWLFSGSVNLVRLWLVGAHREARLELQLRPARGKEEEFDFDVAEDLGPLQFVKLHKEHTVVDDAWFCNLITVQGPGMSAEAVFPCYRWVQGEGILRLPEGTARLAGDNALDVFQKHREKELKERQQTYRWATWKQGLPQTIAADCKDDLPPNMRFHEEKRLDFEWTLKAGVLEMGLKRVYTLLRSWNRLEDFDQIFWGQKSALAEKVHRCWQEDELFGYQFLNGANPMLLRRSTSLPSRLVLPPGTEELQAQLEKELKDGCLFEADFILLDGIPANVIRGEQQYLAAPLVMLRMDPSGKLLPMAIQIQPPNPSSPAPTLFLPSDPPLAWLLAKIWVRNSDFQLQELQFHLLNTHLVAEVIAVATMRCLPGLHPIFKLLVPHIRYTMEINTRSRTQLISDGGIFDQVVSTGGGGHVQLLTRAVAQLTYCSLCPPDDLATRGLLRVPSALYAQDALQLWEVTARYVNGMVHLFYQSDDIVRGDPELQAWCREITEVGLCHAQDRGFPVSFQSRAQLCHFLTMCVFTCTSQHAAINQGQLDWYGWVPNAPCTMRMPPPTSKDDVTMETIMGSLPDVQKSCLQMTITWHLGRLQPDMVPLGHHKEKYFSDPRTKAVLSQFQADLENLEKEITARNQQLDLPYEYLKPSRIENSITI
Protocol: The test was performed to examine inhibitory effect of various compounds on the 12-lipoxyganase activity.
1) Preparation of Enzyme Solution
A Sprague Dawley male rat was anesthetized with ether and bled from abdominal aorta using a syringe filled with about one-tenth volume of 3.8% sodium citrate. Blood was centrifuged at 180×g for 15 minutes at room temperature to pellet sanguineous platelet blood plasma. The resultant supernatant was again centrifuged at 1800×g for 10 minutes at 4° C. The pelleted platelets were rinsed twice with a washing buffer (50 mM Tris-hydrochloric acid buffer containing 154 mM sodium chloride and 2 mM EDTA, pH: 7.4). The platelets were then suspended in one-twentieth volume of a resuspension buffer (50 mM Tris-hydrochloric acid buffer containing 154 mM sodium chloride and 5.5 mM glucose, pH: 7.4). The platelets were then sonicated at 4° C. and centrifuged at 100,000×g for 30 minutes to obtain a supernatant as a 12-lipoxgenaseenzyme solution.
2) Procedure for 12-lipoxgenase inhibition assay
The enzyme solution described above was diluted with the resuspension buffer above mentioned to prepare an assay solution so as to include about 2 mU/ml of 12-lipoxygenase. […] The resultant mixture was incubated at 37° C. for 5 minutes. Subsequently, 3 μl of a 2.5 mM arachidonic acid solution in ethanol was added to incubate with for another 5 minutes at 37° C., then the reaction was ceased by the addition of 600 μl of methanol. After being centrifuged at 10,000×g for 5 minutes, 12-hydroxyeicosatetraenoic acid recovered in the supernatant was separated with a reverse phase high-performance liquid chromatography equipped with a […] the activity of 12 lipoxygenase.
The enzyme solution was prepared according to the same manner as in Test Example 1.
It was prepared according to the same procedure as in Test Example 1.
Measurement was performed according to the same procedure as in Test Example 1.
The measurement was performed according to the same procedure as in Test Example 1.

[3] = biological target: T2, 5-lipoxygenase (Rattus norvegicus, UniProt P12527); test: 5-lipoxygenase inhibition assay (rat basophilic leukemia cell RBL-1 enzyme solution); assay type: biochemical
T2 construct: Cultured cells were collected and washed twice; host or cells: RBL-1 rat basophilic leukemia cells (sonicate, 10,000 x g supernatant)
T2 sequence (P12527 1-673): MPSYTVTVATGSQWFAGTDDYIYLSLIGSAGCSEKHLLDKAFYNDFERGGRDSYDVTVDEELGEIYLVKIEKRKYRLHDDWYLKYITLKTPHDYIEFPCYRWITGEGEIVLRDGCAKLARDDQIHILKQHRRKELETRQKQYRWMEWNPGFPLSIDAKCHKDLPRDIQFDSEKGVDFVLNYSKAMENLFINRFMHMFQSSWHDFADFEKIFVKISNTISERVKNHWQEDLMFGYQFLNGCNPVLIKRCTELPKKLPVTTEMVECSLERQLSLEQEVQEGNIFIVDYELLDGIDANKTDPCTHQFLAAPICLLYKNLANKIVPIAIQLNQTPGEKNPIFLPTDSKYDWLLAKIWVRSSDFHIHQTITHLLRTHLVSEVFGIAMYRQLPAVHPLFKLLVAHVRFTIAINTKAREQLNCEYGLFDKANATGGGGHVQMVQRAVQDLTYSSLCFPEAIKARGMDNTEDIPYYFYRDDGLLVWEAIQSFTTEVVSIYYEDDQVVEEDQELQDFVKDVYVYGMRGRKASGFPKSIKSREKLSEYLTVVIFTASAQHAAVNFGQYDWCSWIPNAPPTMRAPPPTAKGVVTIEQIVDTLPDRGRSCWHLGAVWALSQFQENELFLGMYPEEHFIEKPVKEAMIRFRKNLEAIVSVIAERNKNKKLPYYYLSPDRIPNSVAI
Protocol: The test was carried out to examine the selectivity toward 12-lipoxgenase of the compounds of the first embodiment in the present invention.
i) Preparation of 5-lipoxgenase enzyme solution
Rat basophilic leukemia cells (RBL-1, ATCC CRL1378) were cultured in Dulbecco modified Eagle's medium containing 10% new-born bovine serum.
Cultured cells were collected and washed twice with a 50 mM Tris-buffered saline (containing 154 mM sodium chloride, pH: 7.4, hereinafter described as TBS). The cell suspension (4×10^7 cells/ml) was then sonicated and centrifuged at 10,000×g for 10 minutes.
The resultant supernatant was used to prepare an assay solution.
i) Procedure for 5-lipoxgenase inhibition assay
To an aliquot (15 μl) of the enzyme solution (40 mU/ml equivalent) was added 185 μl of TBS, 50 μl of a 2 mM adenosine triphosphate in TBS, 50 μl of a 12 mM calcium chloride in TBS, 1 μl of a 3 mM indomethacin in ethanol solution, 1 μl of an aqueous 300 mM reduced glutathione solution, and 3 μl of varied concentrated test compounds solution in ethanol. The resultant mixture was incubated at 37° C. for 5 minutes. Subsequently, 3 μl of a 2.5 mM arachidonic acid solution in ethanol was added to incubate the mixture for 2 minutes at 37° C. The reaction was ceased by the addition of 600 μl of methanol After being centrifuged at 10,000×g for 5 minutes, 5-hydroxyeicosatetraenoic acid recovered in the supernatant was separated with a reverse phase high-performance liquid chromatography equipped with a C-18 column and measured the absorption of diene at 234 nm to quantify the activity of the enzyme. […]
The enzyme activities of the compounds of the present invention prepared according to the same procedure as in Examples 54-58 to be described later and baicalein as sample substances at varied concentrations were measured according to the above-mentioned method, and mole concentrations showing 50% 12-lipoxgenase and 5-lipoxgenase inhibition ratios (hereinafter may be described as IC50 values) were obtained from the measured values of the sample substances.

[4] = Deacylation by esterases present in the enzyme solution prepared from rat platelets; assay type: in vitro ADME; settings: platelet enzyme solution, 37° C., read-out: conversion (%) from Formula 34b or Formula 35b to Formula 32b; for metabolised at 0.5 h, 10 µM: Reaction time 30 min.; for metabolised at 1 h, 10 µM: Reaction time 60 min.
Protocol: The test was performed to examine whether or not deacylated compounds would be formed due to esterases present in the enzyme solution when the compounds in the third embodiment according to the present invention were treated with the same enzyme solution as in Test Example 4.
The enzyme solution was prepared according to the same procedure as described in Test Example 4.
(§1) One ml of the above mentioned enzyme solution was diluted with 11 ml of a resuspension buffer. To an aliquot (300 μl) of this enzyme solution was added 3 μl of a 1.0×10^-3 M test compound solution in dimethyl sulfoxide. The mixture was incubated at 37° C. for an indicated time, then the reaction was ceased by the addition of 1 ml of acetonitrile. Twenty μl of the above mixture was subjected to reverse phase high-performance liquid chromatography equipped with a C-18 column to quantify the amount of deacylated products. As a control, a test using 300 μl of the resuspension buffer solution mentioned above instead of the enzyme solution was also performed.
Conditions of reverse phase high-performance liquid chromatography:
Column: Superspher RP-18(e) (purchased from Merck), 4.0 mm in diameter, 125 mm in length
Flow velocity: 1.0 ml/minute
Eluent: Acetonitrile containing 50 mM NaClO4 and 50 mM orthophosphate-water (55: 45)
Column temperature: 30° C.
Calibration: Absorbance of 280 nm

[5] = Deacylation control test in resuspension buffer instead of enzyme solution; assay type: in vitro ADME; settings: resuspension buffer instead of the enzyme solution
Protocol: as §1

[6] = Table 3, read-out: IC50 values of 12-lipoxygenase (mole)
[7] = Table 12, deacylated compounds, read-out: 12-Lipoxygenase inhibitory effect of deacylated compounds (IC50 values)
[8] = Table 3, read-out: IC50 values of 5-lipoxygenase (mole)
[9] = Table 23, read-out: 12-Lipoxygenase inhibitory effect IC50
[10] = Table 23, read-out: 5-Lipoxygenase inhibitory effect IC50

| Compound | IC50 [2, 6] | IC50 [3, 8] | IC50 [2, 9] | IC50 [3, 10] | other results |
| --- | --- | --- | --- | --- | --- |
| O=c1cc(-c2ccccc2)oc2cc(O)c(O)c(O)c12 [Baicalein, baicalein] |  |  |  |  | 12-lipoxygenase inhibitory effect (literature, in words) [1]: having an inhibitory effect to 12-lipoxygenase; also recorded: relatively high 12-lipoxgenaseinhibitory activities and a relatively high selectivity |
| N#CC(=Cc1ccc(Br)cc1)c1ccc(O)c(O)c1 [Ex. 23, α-cyano-4'-bromo-3,4-dihydroxystilbene] | 2.2 nM | 70 nM |  |  | IC50 [2, 7]: 3.6 nM |
| Cc1ccc(C=C(C#N)c2ccc(O)c(O)c2)cc1 [Ex. 24, α-cyano-4'-methyl-3,4-dihydroxystilbene] | 2.5 nM | 52 nM |  |  | IC50 [2, 7]: 4.5 nM |
| CCc1ccc(C=C(C#N)c2ccc(O)c(O)c2)cc1 [Ex. 26, α-cyano-4'-ethyl-3,4-dihydroxystilbene] | 4.2 nM | 32 nM |  |  |  |
| Cc1ccc(C=C(C#N)c2ccc(O)c(O)c2)s1 [Ex. 27, α-(5-methylthiophen-2-ylmethylidene)-3,4-dihydroxybenzeneacetonitrile] | 7.7 nM | 66 nM |  |  |  |
| N#CC(=Cc1ccc(O)c(O)c1)c1csc2ccccc12 [Formula 22c] |  |  | 8.6 nM | 56 nM |  |
| N#CC(=Cc1ccc(O)c(O)c1)c1ccc2ccccc2c1 [Formula 23c] |  |  | 10 nM | 30 nM |  |
| N#CC(=Cc1ccc2ccccc2c1)c1ccc(O)c(O)c1 [Formula 24c] |  |  | 5.6 nM | 28 nM |  |
| N#CC(=Cc1cccc2ccccc12)c1ccc(O)c(O)c1 [Formula 25c] |  |  | 5.9 nM | 36 nM |  |
| N#CC(=Cc1cc2ccccc2o1)c1ccc(O)c(O)c1 [Formula 26c] |  |  | 3.2 nM | 34 nM |  |
| CC(=O)Oc1ccc(C=C(C#N)c2ccc(Cl)cc2)cc1OC(C)=O [Formula 34b] |  |  |  |  | metabolised at 0.5 h, 10 µM [4]: 70.9%; metabolised at 1 h, 10 µM [4]: 82.8%; formation of deacylated compound (Formula 32b) [5]: no deacylated compound (Formula 32b) was formed |
| CCC(=O)Oc1ccc(C=C(C#N)c2ccc(Cl)cc2)cc1OC(=O)CC [Formula 35b] |  |  |  |  | metabolised at 0.5 h, 10 µM [4]: 56.5%; metabolised at 1 h, 10 µM [4]: 64.6%; formation of deacylated compound (Formula 32b) [5]: no deacylated compound (Formula 32b) was formed |
